Assay results published in the supplement of paper PMC10307832.

Tests used:
[1] = compound: O=C1NC(=O)[C@@H](c2cn3c4c(cccc24)CCC3)[C@@H]1c1c[nH]c2ccccc12 [Tivantinib] + COc1cc2c(Oc3ccc(NC(=O)C4(C(=O)Nc5ccc(F)cc5)CC4)cc3F)ccnc2cc1OCCCN1CCOCC1 [Foretinib] (partner 0.25 µM); experiment: relative viability (nuclei count vs DMSO), 5 days (fraction); higher = more cells survive
In short: (§1)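 Five library-drug doses in √10 steps were combined with a fixed anchor-drug dose, or a single drug was given alone, by pin tool to lung cancer cell lines in 1536-well plates the day after seeding. Nuclei were stained and counted after 5 days. Relative viability is the nuclei count in treated wells over that in vehicle wells, taken as the median of duplicate plates.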

[2] = compound: CC1(COc2ccc3c(c2)ncn3-c2ccc3cccc(N4CCC(N)CC4)c3n2)COC1 [Crenolanib] + CC1(C)CCC(c2ccc(Cl)cc2)=C(CN2CCN(c3ccc(C(=O)NS(=O)(=O)c4ccc(N[C@H](CCN5CCOCC5)CSc5ccccc5)c(S(=O)(=O)C(F)(F)F)c4)cc3)CC2)C1 [Navitoclax] (partner 0.5 µM); experiment: as above
In short: as §1

| Cell Line | relative viability ([1]; first compound 0.01 µM) | relative viability ([1]; first compound 0.03162 µM) | relative viability ([1]; first compound 0.1 µM) | relative viability ([1]; first compound 0.3162 µM) | relative viability ([2]; first compound 0.01 µM) | relative viability ([2]; first compound 0.03162 µM) | relative viability ([2]; first compound 0.1 µM) | relative viability ([2]; first compound 0.3162 µM) | relative viability ([2]; first compound 1 µM) |
| --- | --- | --- | --- | --- | --- | --- | --- | --- | --- |
| NCI-H2342 | 1.08 | 1.15 | 0.948 | 0.682 |  |  |  |  |  |
| SK-MES-1 | 1.02 | 0.637 | 0.962 | 0.924 | 1.4 | 1.4 | 1.25 | 1.45 | 1.2 |
| EPLC-272H | 0.776 | 0.593 | 0.787 | 0.0941 |  | 1.25 | 0.988 | 1.17 | 1.08 |
| HCC-44 |  |  |  |  | 0.951 | 0.998 | 0.961 | 0.987 | 0.94 |
| 201T | 1.16 | 1.01 | 1.02 | 0.921 | 1.19 | 1.21 | 1.16 | 1.16 | 1.24 |
| HOP-62 | 1.17 | 1.02 | 1.06 | 1.14 | 1.08 | 0.958 | 0.81 | 1.06 | 1.12 |
| NCI-H650 | 1.03 | 0.987 | 0.989 | 0.822 |  |  |  |  |  |
| NCI-H2085 | 0.921 | 1.13 | 0.916 | 0.666 | 1.08 | 1.12 | 1.09 | 1.24 | 1.17 |
| NCI-H596 | 0.855 | 0.835 | 1.1 | 0.895 | 1.02 | 1.04 | 0.805 | 0.899 | 0.822 |
| SK-LU-1 | 0.932 | 0.919 | 0.705 | 0.708 | 0.923 | 1.02 | 0.472 | 1.05 | 0.803 |
| A-427 | 1.06 | 1.24 | 0.97 | 0.848 | 0.995 | 0.912 | 0.999 | 1.02 | 0.966 |
| NCI-H460 | 0.935 | 1.06 | 0.94 | 0.97 | 1.24 | 1.4 | 0.932 | 1.15 | 1.15 |
| NCI-H1734 | 0.952 | 0.937 | 0.743 | 0.598 | 0.846 | 0.778 | 0.796 | 0.952 | 0.886 |
| NCI-H1915 | 1.11 | 1.06 | 1.08 | 1.07 | 0.792 | 0.769 | 0.786 | 0.828 | 0.831 |
| Calu-6 | 0.931 | 0.924 | 0.806 | 0.725 | 1.02 | 0.781 | 0.826 | 0.941 | 0.838 |
| SW 1573 | 1.04 | 0.83 | 0.804 | 0.863 | 1.11 | 1.17 | 0.867 | 1.03 | 1.23 |
| RERF-LC-KJ | 0.911 | 0.908 | 0.85 | 0.883 | 0.962 | 0.729 | 1.04 | 1.33 | 0.948 |
| EMC-BAC-2 | 1 | 0.962 | 0.487 | 0.72 | 1.22 | 1.21 | 1.09 | 1.36 | 1.16 |
| LK-2 | 1.48 |  | 1.16 | 0.929 | 0.909 | 1.07 | 0.93 | 1.05 | 0.933 |
| NCI-H2228 |  | 0.841 | 0.678 | 0.714 | 0.796 | 0.62 | 0.764 | 1.24 | 1.3 |
| NCI-H322M | 1.02 | 0.922 | 0.943 |  | 1.12 | 1.14 | 1.19 | 1.28 | 1.38 |

| Cell Line | relative viability ([1]; first compound 0.01 µM) | relative viability ([1]; first compound 0.03162 µM) | relative viability ([1]; first compound 0.1 µM) | relative viability ([1]; first compound 0.3162 µM) | relative viability ([2]; first compound 0.01 µM) | relative viability ([2]; first compound 0.03162 µM) | relative viability ([2]; first compound 0.1 µM) | relative viability ([2]; first compound 0.3162 µM) | relative viability ([2]; first compound 1 µM) |
| --- | --- | --- | --- | --- | --- | --- | --- | --- | --- |
| NCI-H1993 | 0.808 | 0.762 | 0.766 | 0.545 | 0.994 | 0.92 | 0.825 | 0.897 | 0.884 |
| NCI-H1944 | 0.795 | 0.874 | 0.851 | 0.63 | 0.987 | 1.03 | 1.04 | 1.13 | 1.03 |
| LXF-289 | 0.96 | 0.927 | 0.95 | 0.983 | 0.92 | 0.977 | 0.873 | 1 | 0.929 |
| NCI-H2405 | 1.16 | 1.07 | 1.05 | 0.98 | 1.34 | 0.917 | 0.441 | 0.765 | 0.806 |
| NCI-H2023 | 0.787 | 0.841 | 0.816 | 0.516 | 1.02 | 0.996 | 0.977 | 1.09 | 0.956 |
| HCC-366 | 0.89 | 0.852 | 0.929 | 0.912 | 1.03 | 1.12 | 1.03 | 1.23 | 1.01 |
| HCC-78 | 0.548 | 0.547 | 0.539 | 0.441 | 0.754 | 0.8 | 0.726 | 0.727 | 0.764 |
| COR-L23 | 1.01 | 0.953 | 0.893 | 1.04 | 1.06 | 1.07 | 0.922 | 1.12 | 1.04 |
| HCC-827 | 1.01 | 1.12 | 0.957 | 0.485 | 0.976 | 1.03 | 0.978 | 1.07 | 0.995 |
| NCI-H1355 | 1.08 | 1.03 | 0.995 | 0.915 | 1.08 | 0.897 | 0.999 | 1.22 | 0.825 |
| NCI-H838 | 1 | 1.07 | 0.992 | 1.07 | 1.19 | 1.16 | 1.21 | 1.2 | 1.02 |
| NCI-H2126 | 1.16 | 1.12 | 1.04 | 0.829 | 0.891 | 0.888 | 0.831 | 0.916 | 0.934 |
| BEN | 0.602 | 0.535 | 0.616 | 0.559 | 0.0589 | 0.0559 | 0.0723 | 0.0658 | 0.0687 |
| LCLC-97TM1 | 0.993 | 0.928 | 0.911 | 0.888 | 0.489 | 0.525 | 0.489 | 0.473 | 0.445 |
| EKVX | 0.714 | 0.841 | 0.761 |  | 1.01 | 0.898 | 0.881 | 1.11 | 0.899 |
| NCI-H1299 | 1.1 | 1.04 | 1.04 | 1.07 | 1.04 | 1.04 | 0.987 | 1.08 | 1.06 |
| ABC-1 | 0.936 | 0.995 | 1.09 | 1.15 |  |  |  |  |  |
| NCI-H661 | 1.01 | 1.04 | 0.968 | 0.686 |  |  |  |  |  |
| NCI-H1651 | 0.931 | 0.813 | 0.769 | 0.691 | 1.1 | 1.07 | 0.935 | 1.23 | 1.03 |
| NCI-H2087 | 1.1 | 1.16 | 0.914 | 1.13 | 1.02 | 0.9 | 0.867 | 1.06 | 1.12 |
| NCI-H1793 | 0.698 | 0.616 | 0.762 | 0.548 | 0.441 | 0.362 | 0.386 | 0.386 | 0.511 |

| Cell Line | relative viability ([1]; first compound 0.01 µM) | relative viability ([1]; first compound 0.03162 µM) | relative viability ([1]; first compound 0.1 µM) | relative viability ([1]; first compound 0.3162 µM) | relative viability ([2]; first compound 0.01 µM) | relative viability ([2]; first compound 0.03162 µM) | relative viability ([2]; first compound 0.1 µM) | relative viability ([2]; first compound 0.3162 µM) | relative viability ([2]; first compound 1 µM) |
| --- | --- | --- | --- | --- | --- | --- | --- | --- | --- |
| LCLC-103H | 0.783 | 0.68 | 0.735 | 0.663 |  |  |  |  |  |
| COR-L 105 | 0.834 | 0.991 | 0.982 | 0.735 | 0.766 | 0.778 | 0.713 | 0.975 | 0.884 |
| NCI-H1437 | 1.26 | 1.34 | 1.3 | 1.25 | 1.1 | 1.11 | 1.15 | 1.18 | 1.11 |
| HARA | 0.864 | 0.795 | 0.935 | 0.643 | 1.13 | 1.16 | 1.16 | 1.18 | 1.16 |
| NCI-H2009 | 1.23 | 1.22 | 1.21 | 1.27 | 1.2 | 1.17 | 1.13 | 1.24 | 1.01 |
| NCI-H1755 | 0.971 | 0.863 | 0.871 | 1.03 | 0.974 | 1.02 | 0.998 | 1.01 | 0.993 |
| IA-LM | 1.01 | 1.15 | 0.983 | 1.12 | 0.749 | 0.692 | 0.809 | 0.95 | 0.948 |
| LU99A | 0.692 | 0.84 | 0.737 | 0.6 | 0.989 | 0.802 | 0.846 | 0.893 | 0.964 |
| ChaGo-K-1 | 0.846 | 0.904 | 0.838 | 0.559 | 0.674 | 0.917 | 1 | 0.844 | 1 |
| NCI-H23 | 1.08 | 0.957 | 1 | 0.801 | 0.805 | 0.992 | 0.899 | 1.03 | 0.822 |
| PC-3 [JPC-3] | 1 | 1.12 | 1.06 | 0.904 | 0.783 | 0.788 | 0.754 | 0.841 | 0.869 |
| NCI-H1563 | 0.98 | 0.892 | 0.819 | 0.783 |  |  |  |  |  |
| NCI-H520 | 0.869 | 0.792 | 0.655 | 0.708 | 0.962 | 1.13 | 1.01 | 1.15 | 1.01 |
| NCI-H1703 | 0.384 | 0.335 | 0.319 | 0.307 | 1 | 0.657 | 0.286 | 0.254 | 0.198 |
| NCI-H1666 | 0.936 | 1.01 | 0.979 | 0.827 | 1.07 | 0.998 | 0.872 | 1.19 | 0.971 |
| NCI-H1792 |  |  |  |  | 0.656 | 0.408 | 0.579 | 0.673 | 0.642 |
| NCI-H727 | 0.829 | 0.857 | 0.629 | 0.732 | 0.57 | 0.414 | 0.462 | 0.467 | 0.362 |
| NCI-H1623 | 0.87 | 0.745 | 0.818 |  |  |  |  |  |  |
| SW 900 | 0.831 | 0.934 | 0.818 | 0.888 |  |  |  |  |  |
| NCI-H358 | 0.716 | 0.754 | 0.508 | 0.273 |  |  |  |  |  |
